Drawing on ChEMBL document CHEMBL4177569, “Design, synthesis and preliminary antiproliferative activity studies of new diheteroaryl thioether derivatives” (Bioorg Med Chem Lett, 2017), this text covers IC50 for one compound.

A word on the IC50: it is the concentration that gives 50% inhibition. A low value points to inhibition by little substance.

Type in all cases: functional, cell-based
In test [1] the test system is MGC-803. As to the kind of experiment: Antiproliferative activity against human MGC803 cells after 48 hrs by MTT assay. The conditions noted are these: MGC-803, 48 h. Background: Tetrazolium dyes change colour on reduction, which living cells bring about.
Test [2] has as its system MKN-45. As to the kind of experiment: Antiproliferative activity against human MKN45 cells after 48 hrs by MTT assay. The conditions noted are these: MKN-45, 48 h.
Test [3] relates to ECa-109 cell line. The experiment in a line: Antiproliferative activity against human EC109 cells after 48 hrs by MTT assay. Particulars: ECa-109, 48 h.
In test [4] the test system is NCI-H1650. The experiment in a line: Antiproliferative activity against human NCI-H1650 cells after 48 hrs by MTT assay. Particulars: NCI-H1650, 48 h.

Turning to `O=c1[nH]cc(F)c(=O)[nH]1` [FLUOROURACIL], the IC50 was 7.52 µM in test [1], 8.89 µM in test [2], 6.21 µM in test [3] and 14.2 µM in test [4].
